Measured values from US20110238319A1, “METHOD OF DIAGNOSING A RESPIRATORY DISEASE” (priority 2008, published 2011).

Key:
guinea pigs [1] = test system: guinea pigs
Procedure: Female Dunkin-Hartley guinea pigs (GP) were used (specific pathogen-free, 180-450 g, Charles River Laboratories, Saint-Constant, Canada) in accordance with standards established by the University of Alberta Health Sciences Animal Policy and Welfare Committee and Guidelines of the Canadian Council on Animal Care. All guinea pigs were allowed to adapt to the new environment for at least one week before physiologic studies. […] Airway function and inflammation were assessed four days after OVA challenge or 21 days after sensitization alone.
Guinea Pigs were anesthetized with urethane (1.5 g/kg i.p.), tracheostomized, and ventilated after paralysis with succinylcholine chloride (Sigma-Aldrich) (10 μg/kg/min, i.v.). Pulmonary inflation pressure (Ppi) was measured using (Powerlab, Adlnstruments, Colorado Springs, USA) as previously described^17. […] The resulting bronchoconstriction was recorded as increases in Ppi.
The results are expressed as mean and standard error of the mean (SEM) and standard deviation (SD) respectively. A P-value of 0.05 was considered significant.

guinea pigs [2] = experiment: Eosinophil count in cartilaginous airways (histology); format: in vivo, guinea pig; conditions: challengeddex vs challenged
Procedure: (§1) Animals were sacrificed with an overdose of urethane (3 gm/kg i.v.). Cytosmear for total and differential cell counts (Diff-Quik®, Baxter Healthcare Corp) were performed on lung lavage ^17. The lungs were removed, inflated and fixed in 3.7% formaldehyde for 24 hours. Airway sections were stained with 2% chromotrope 2R to determine the average number of eosinophils per 10 high power field (#/hpf) as previously described^20.
(§2) A P-value of 0.05 was considered significant.

[3] = Urine metabolite concentrations by 1H-NMR (Chenomx, PLS-DA); format: in vivo, guinea pig; conditions: for urine Fumarate concentration / urine Glycolate concentration / urine Trimethylamine concentration: mean (STD) per title
Procedure: Regarding animal urine data: under anaesthesia, but before performing airway inflammatory measurements, urine samples (1.0-2.0 cc) were collected by trans-abdominal cystocentesis. Regarding human urine data: midstream urine samples were collected in standard 50 ml specimen containers and promptly placed in a freezer at the outpatient clinic (−20° C.).
Within 3 hours each the urine sample was moved to the −80° C. freezer at NANUC (National High Field NMR Centre), University of Alberta. To determine the NMR spectra, the samples were thawed in a biosafety fume hood and a […] aliquot was removed and placed in a 1.5 ml Eppendorff tube followed by the addition of […] of a reference buffer solution (4.9 mM DSS (disodium-2, 2-dimethyl 2-silapentane-5-sulphonate) and 100 mM imidazole in D2O, Sigma-Aldrich). Each sample was brought to a pH of 7.0 +/-0.1 using HCl and NaOH. An uncentrifuged aliquot of 600 μl was taken and transferred to a standard 5 mm glass NMR tube (Wilmad, N.J.). ^1H-NMR spectra were acquired on a 600 MHz Inova spectrometer (Varian Inc, Palo Alto, Calif.) equipped with a 5 mm triple-resonance (HCN) probe with z-axis gradient coil. One-dimensional ^1H-NMR spectra were collected at 25° C. with a tnnoesy pulse sequence (one-dimensional, three pulse NOESY, with a transmitter pre-saturation delay of 900 ms for water suppression during the pre-acquisition delay and 100 ms mixing time) and a spectral width of 7200 Hz. The time-domain data points were 64k complex points, acquisition time was 4s, 90° pulse was 6.8 μs, repetition time was 5 s, with four steady state scans, and 32 acquired scans per FID (Free Induction Decay). The data were apodized with an exponential window function corresponding to a line broadening of 0.5 Hz, zero-filled to 128 k complex points, and Fourier transformed^22.
Quantification of 50-70 easily identifiable metabolites involved in various relevant metabolic pathways was performed using Chenomx NMR Suite Professional software package Version 3.1 (Chenomx Inc., Edmonton, AB)^23. The software contains a database of known metabolites with their referenced spectral resonant frequencies or signatures. The software allows matching of these known resonant frequencies with the observed resonant frequencies of the collected spectra, enabling the qualitative and quantitative analysis of metabolites in urine NMR spectra (FIG. 1A). The methyl groups from DSS produce a resonant singlet, which served as internal standard for spectral chemical shifts (set to 0 ppm) and for quantification. The internal DSS signal was also utilized as the concentration reference (0.49 mM). To correct for dilution, metabolite concentrations were referenced against urinary creatinine^24. This method is capable of providing metabolite concentration accuracies in excess of 90%^23, 25.
To separate groups of animals or patients based on urine metabolite concentrations, the values of the 50-70 metabolite concentrations for each animal/child were log transformed and imported to SIMCA software (SIMCA-P 11, Umetrics, USA). […] To appreciate the impact of a lower concentration metabolite in the model, equal to the change in an abundant metabolite, the methods must detect the relative change in concentration. Thus, metabolite concentrations were mean-centered followed by unit variance scaling (or z-scoring). Thereafter, partial least squares discriminant analysis (PLS-DA) was performed (SIMCA-P 11). PLS-DA determines the relationship between the response vector Y (i.e. subject group) and the matrix X (concentration of each metabolite) by simultaneous projections of both Y and X spaces to a plane. Then seven fold internal crossvalidation was performed by dividing the data into seven parts (by default) and each 1/7th in turn was removed.

guinea pigs [4] = experiment: Lung lavage total and differential cell counts; format: in vivo, guinea pig
Procedure: as §1, §2

NCCc1c[nH]cn1 [histamine]
bronchoconstriction measured by increasing Ppi (guinea pigs [1]; histamine 1-20 μg/kg i.v.): dose-dependent bronchoconstriction

C[C@@H]1C[C@H]2[C@@H]3CCC4=CC(=O)C=C[C@]4(C)[C@@]3(F)[C@@H](O)C[C@]2(C)[C@@]1(O)C(=O)CO [Dex, dexamethasone]
eosinophils in cartilaginous airways (guinea pigs [2]): remained similar to challenged
urine 1-Methyl-Histamine concentration ([3]; Challenged/Dex group (n = 12)): 0.044(0.002-0.055) mmol/mmol creatinine
urine 2-OH-Isobutyrate concentration ([3]; Challenged/Dex group (n = 12)): 0.043(0.031-0.061) mmol/mmol creatinine
urine 2-Oxoglutarate concentration ([3]; Challenged/Dex group (n = 12)): 0.006(0.005-0.012) mmol/mmol creatinine
urine 3-Methyl-Adipate concentration ([3]; Challenged/Dex group (n = 12)): 0.011(0.009-0.017) mmol/mmol creatinine
urine 3-OH-3-Methyl-Glutarate concentration ([3]; Challenged/Dex group (n = 12)): 0.010(0.006-0.014) mmol/mmol creatinine
urine 3-OH-Butyrate concentration ([3]; Challenged/Dex group (n = 12)): 0.018(0.013-0.029) mmol/mmol creatinine
urine 4-Aminohippurate concentration ([3]; Challenged/Dex group (n = 12)): 0.010(0.005-0.010) mmol/mmol creatinine
urine 4-OH-Phenylacetate concentration ([3]; Challenged/Dex group (n = 12)): 0.122(0.068-0.196) mmol/mmol creatinine
urine 4-Pyridoxate concentration ([3]; Challenged/Dex group (n = 12)): 0.009(0.005-0.010) mmol/mmol creatinine
urine Acetate concentration ([3]; Challenged/Dex group (n = 12)): 0.118(0.081-0.203) mmol/mmol creatinine
urine Acetoacetate concentration ([3]; Challenged/Dex group (n = 12)): 0.007(0.005-0.010) mmol/mmol creatinine
urine Acetone concentration ([3]; Challenged/Dex group (n = 12)): 0.005(0.003-0.009) mmol/mmol creatinine
urine Adenosine concentration ([3]; Challenged/Dex group (n = 12)): 0(0-0.001) mmol/mmol creatinine
urine Carnitine concentration ([3]; Challenged/Dex group (n = 12)): 0.010(0.010-0.015) mmol/mmol creatinine
urine Creatine concentration ([3]; Challenged/Dex group (n = 12)): 0.026(0.016-0.033) mmol/mmol creatinine
urine Dimethylamine concentration ([3]; Challenged/Dex group (n = 12)): 0.122(0.103-0.146) mmol/mmol creatinine
urine Glucose concentration ([3]; Challenged/Dex group (n = 12)): 0.155(0.100-0.334) mmol/mmol creatinine
urine Isobutyrate concentration ([3]; Challenged/Dex group (n = 12)): 0(0-0) mmol/mmol creatinine
urine Kynurenate concentration ([3]; Challenged/Dex group (n = 12)): 0.006(0.004-0.008) mmol/mmol creatinine
urine Malonate concentration ([3]; Challenged/Dex group (n = 12)): 0.014(0.010-0.018) mmol/mmol creatinine
urine Methylamine concentration ([3]; Challenged/Dex group (n = 12)): 0.033(0.026-0.069) mmol/mmol creatinine
urine Myolnositol concentration ([3]; Challenged/Dex group (n = 12)): 0.035(0.020-0.080) mmol/mmol creatinine
urine Oxalacetate concentration ([3]; Challenged/Dex group (n = 12)): 0.249(0.197-0.323) mmol/mmol creatinine
urine Phenylacetylglycine concentration ([3]; Challenged/Dex group (n = 12)): 0.140(0.095-0.213) mmol/mmol creatinine
urine Phenylalanine concentration ([3]; Challenged/Dex group (n = 12)): 0.022(0.016-0.042) mmol/mmol creatinine
urine Sarcosine concentration ([3]; Challenged/Dex group (n = 12)): 0.010(0.007-0.016) mmol/mmol creatinine
urine Succinate concentration ([3]; Challenged/Dex group (n = 12)): 0.006(0.005-0.008) mmol/mmol creatinine
urine Trigonelline concentration ([3]; Challenged/Dex group (n = 12)): 0.069(0.063-0.091) mmol/mmol creatinine
urine Trimethyl-N-Oxide concentration ([3]; Challenged/Dex group (n = 12)): 0.045(0.027-0.062) mmol/mmol creatinine
urine Tyrosine concentration ([3]; Challenged/Dex group (n = 12)): 0.024(0.016-0.032) mmol/mmol creatinine
urine Fumarate concentration ([3]; Challenged/Dex group (n = 12)): 0(0-0) mmol/mmol creatinine
urine Glycolate concentration ([3]; Challenged/Dex group (n = 12)): 0(0-0) mmol/mmol creatinine
urine Trimethylamine concentration ([3]; Challenged/Dex group (n = 12)): 0(0-0) mmol/mmol creatinine
urine 1-Methyl-Histamine concentration ([3]; Control/Dex group (n = 4)): 0.015(0.008-0.023) mmol/mmol creatinine
urine 2-OH-Isobutyrate concentration ([3]; Control/Dex group (n = 4)): 0.043(0.038-0.045) mmol/mmol creatinine
urine 2-Oxoglutarate concentration ([3]; Control/Dex group (n = 4)): 0.004(0.003-0.005) mmol/mmol creatinine
urine 3-Methyl-Adipate concentration ([3]; Control/Dex group (n = 4)): 0.015(0.008-0.018) mmol/mmol creatinine
urine 3-OH-3-Methyl-Glutarate concentration ([3]; Control/Dex group (n = 4)): 0.004(0.003-0.005) mmol/mmol creatinine
urine 3-OH-Butyrate concentration ([3]; Control/Dex group (n = 4)): 0.041(0.029-0.048) mmol/mmol creatinine
urine 4-Aminohippurate concentration ([3]; Control/Dex group (n = 4)): 0.090(0.040-0.115) mmol/mmol creatinine
urine 4-OH-Phenylacetate concentration ([3]; Control/Dex group (n = 4)): 0.101(0.095-0.130) mmol/mmol creatinine
urine 4-Pyridoxate concentration ([3]; Control/Dex group (n = 4)): 0.004(0.003-0.005) mmol/mmol creatinine
urine Acetate concentration ([3]; Control/Dex group (n = 4)): 0.137(0.098-0.180) mmol/mmol creatinine
urine Acetoacetate concentration ([3]; Control/Dex group (n = 4)): 0.011(0.009-0.012) mmol/mmol creatinine
urine Acetone concentration ([3]; Control/Dex group (n = 4)): 0.004(0.003-0.005) mmol/mmol creatinine
urine Adenosine concentration ([3]; Control/Dex group (n = 4)): 0.002(0-0.003) mmol/mmol creatinine
urine Carnitine concentration ([3]; Control/Dex group (n = 4)): 0.140(0.120-0.175) mmol/mmol creatinine
urine Creatine concentration ([3]; Control/Dex group (n = 4)): 0.039(0.035-0.045) mmol/mmol creatinine
urine Dimethylamine concentration ([3]; Control/Dex group (n = 4)): 0.096(0.087-0.110) mmol/mmol creatinine
urine Isobutyrate concentration ([3]; Control/Dex group (n = 4)): 0(0-0.50) mmol/mmol creatinine
urine Kynurenate concentration ([3]; Control/Dex group (n = 4)): 0.005(0.004-0.010) mmol/mmol creatinine
urine Malonate concentration ([3]; Control/Dex group (n = 4)): 0.016(0.011-0.020) mmol/mmol creatinine
urine Methylamine concentration ([3]; Control/Dex group (n = 4)): 0.009(0.009-0.014) mmol/mmol creatinine
urine Myolnositol concentration ([3]; Control/Dex group (n = 4)): 0.410(0.380-0.570) mmol/mmol creatinine
urine Oxalacetate concentration ([3]; Control/Dex group (n = 4)): 0.237(0.228-0.247) mmol/mmol creatinine
urine Phenylacetylglycine concentration ([3]; Control/Dex group (n = 4)): 0.024(0.022-0.026) mmol/mmol creatinine
urine Phenylalanine concentration ([3]; Control/Dex group (n = 4)): 0.011(0.009-0.013) mmol/mmol creatinine
urine Sarcosine concentration ([3]; Control/Dex group (n = 4)): 0.004(0.003-0.005) mmol/mmol creatinine
urine Succinate concentration ([3]; Control/Dex group (n = 4)): 0.013(0.011-0.014) mmol/mmol creatinine
urine Succinylacetone concentration ([3]; Control/Dex group (n = 4)): 0.004(0.003-0.005) mmol/mmol creatinine
urine Trigonelline concentration ([3]; Control/Dex group (n = 4)): 0.053(0.044-0.059) mmol/mmol creatinine
urine Trimethyl-N-Oxide concentration ([3]; Control/Dex group (n = 4)): 0.089(0.076-0.107) mmol/mmol creatinine
urine Tyrosine concentration ([3]; Control/Dex group (n = 4)): 0.027(0.016-0.042) mmol/mmol creatinine
urine Fumarate concentration ([3]; Control/Dex group (n = 4)): 0(0-0) mmol/mmol creatinine
urine Glycolate concentration ([3]; Control/Dex group (n = 4)): 0(0-0) mmol/mmol creatinine
urine Trimethylamine concentration ([3]; Control/Dex group (n = 4)): 0(0-0) mmol/mmol creatinine
urine phenylacetylglycine level ([3]; challenged animals after dexamethasone treatment): returned to control levels
urine sarcosine level ([3]; challenged guinea pig after steroid treatment): decreased
urine metabolite profile by PLS-DA ([3]; challenged vs challengeddex, control vs controldex): altered urine metabolite profile
urine myo-inositol level ([3]; challengeddex among guinea pig groups): highest
urinary excretion of 2-hydroxyisobutyrate ([3]; challengeddex vs challenged): levels rose
urinary excretion of glucose ([3]; challengeddex vs challenged): levels rose
urine phenylacetylglycine level ([3]; dexamethasone-treated controls vs control): significantly lower levels
bronchoconstriction response to histamine (Ppi) (guinea pigs [1]; challengeddex compared to challenged alone, dexamethasone 6.5 μg/kg i.p. 1 hour after challenge then daily for two days, p<0.05): diminished response
total cells in lung lavage (guinea pigs [4]; challengeddex vs challenged): remained higher similar to challenge
lymphocytes in lung lavage (guinea pigs [4]; challengeddex vs challenged, p<0.05): significantly lower
total cell counts in lung lavage (guinea pigs [4]; controldex vs control and sensitized, dexamethasone 6.5 μg/kg i.p. daily for three days): no significant difference
macrophage values in lung lavage (guinea pigs [4]; controldex vs control, p=0.03): higher compared with control
